What was measured:
non-muscle actin = experiment: Actin Polymerization Inhibition Assay (Actin Polymerization Biochem Kit, pyrene actin fluorescence); type: biochemical; conditions: inhibition of actin polymerization (pyrene-labeled actin fluorescence increase) at standard test concentration of 10 uM
Method: The quantative effects of the test compounds on the kinetics of actin polymerization were determined using a non-muscle actin polymerization kit, Actin Polymerization Biochem Kit, according to the instructions of the manufacturer (Cytoskeleton Inc; Denver, Colo.). This assay evaluates the fluorescence intensity of pyrene actin, which is greater for polymeric actin than for monomeric actin. The ability of the test compounds to inhibit actin assembly was determined by measuring their ability to inhibit this increase in the fluorescence intensity of the pyrene-labeled actin. Results were expressed as the percent inhibition measured at a standard test concentration of 10 uM.

NIH/3T3 cells = experiment: NIH/3T3 Cell Morphology Assay (phalloidin staining, degree of actin disruption); type: cell-based; conditions: 30 minutes at 37° C., 10 nM to 100 uM tested, TRITC-phalloidin imaging
Method: NIH/3T3 cells were grown in DMEM-H containing glutamine and 10% Colorado Calf Serum. Cells were passaged regularly prior to reaching confluence. Eighteen to 24 hours prior to experimentation, the cells were plated onto Poly-L-Lysine-coated glass coverslips. On the day of experimentation, the cell culture medium was removed and was replaced with medium containing from 10 nM to 100 uM of the test compound, and the cells were incubated for 30 minutes at 37° C. The culture medium was then removed and the cells were washed with warmed PBS and fixed for 10 minutes with warmed 4% paraformaldehyde. The cells were permeabilized with 0.5% Triton-X, stained with TRITC-conjugated phalloidin and imaged using a Nikon Eclipse E600 epifluorescent microscope to determine the degree of actin disruption. Results were expressed as the concentration at which complete disruption of the actin cytoskeleton was observed.

SMILES: C/C1=C/C(=O)O[C@@H]2C[C@@H](CCC/C=C\CC1)O[C@@](O)([C@@H]1CSC(=O)N1)C2 [Compound 8, (R)-4-((1R,4Z,8Z,13R,15R)-15-Hydroxy-5-methyl-3-oxo-2,14-dioxa-bicyclo[11.3.1]heptadeca-4,8-dien-15-yl)thiazolidin-2-one]
- Percent inhibition at 10 uM (non-muscle actin): 69.9%
- Concentration giving complete actin disruption (NIH/3T3 cells): 5 µM

SMILES: C=CCCC[C@@H]1C[C@@H](OC(=O)c2ccccc2)C[C@](O)([C@@H]2CSC(=O)N2)O1 [Compound 4, (2R,4R,6R)-2-Hydroxy-2-((R)-2-oxothiazolidin-4-yl)-6-(pent-4-enyl)-tetrahydro-2H-pyran-4-yl Benzoate]
- Percent inhibition at 10 uM (non-muscle actin): 52.0%

SMILES: C/C1=C/C(=O)O[C@@H]2C[C@@H](CC[C@H](C)/C=C/CC1)O[C@@](O)([C@@H]1CSC(=O)N1)C2 [Compound 8b, (R)-4-((1R,4Z,8E,10S,13R,15R)-15-Hydroxy-5,10-dimethyl-3-oxo-2,14-dioxa-bicyclo[11.3.1]heptadeca-4,8-dien-15-yl)thiazolidin-2-one]
- Percent inhibition at 10 uM (non-muscle actin): 61.7%
- Concentration giving complete actin disruption (NIH/3T3 cells): 25 µM

SMILES: O=C1CCCCCCCCCC[C@@H]2C[C@H](C[C@](O)([C@@H]3CSC(=O)N3)O2)O1 [Compound 10d, (R)-4-((1R,14R,16R)-16-Hydroxy-3-oxo-2,15-dioxa-bicyclo[12.3.1]octadecan-16-yl)thiazolidin-2-one]
- Percent inhibition at 10 uM (non-muscle actin): 10.4%

SMILES: C=CCCC[C@@H]1C[C@@H](NC(=O)/C=C(/C)CCC=C)C[C@](O)([C@@H]2CSC(=O)N2)O1 [Compound 1a, (Z)-N-((2R,4R,6R)-2-Hydroxy-2-((R)-2-oxothiazolidin-4-yl)-6-(pent-4-enyl)-tetrahydro-2H-pyran-4-yl)-3-methylhepta-2,6-dienamide]
- Percent inhibition at 10 uM (non-muscle actin): 32.4%

SMILES: C=CCCC[C@@H]1C[C@@H](OC(=O)c2ccc(OC)cc2)C[C@](O)([C@@H]2CSC(=O)N2)O1 [Compound 4a, (2R,4R,6R)-2-Hydroxy-2-((R)-2-oxothiazolidin-4-yl)-6-(pent-4-enyl)-tetrahydro-2H-pyran-4-yl 4-Methoxybenzoate]
- Percent inhibition at 10 uM (non-muscle actin): 42.2%

SMILES: O=C1CCCC/C=C\CCC[C@@H]2C[C@H](C[C@](O)([C@@H]3CSC(=O)N3)O2)O1 [Compound 10a, (R)-4-((1R,13R,15R,Z)-15-Hydroxy-3-oxo-2,14-dioxa-bicyclo[11.3.1]heptadec-8-en-15-yl)thiazolidin-2-one]
- Percent inhibition at 10 uM (non-muscle actin): 14.0%

SMILES: C/C1=C/C(=O)O[C@@H]2C[C@@H](CCC/C=C/CC1)O[C@@](O)([C@@H]1CSC(=O)N1)C2 [Compound 8a, (R)-4-((1R,4Z,8E,13R,15R)-15-Hydroxy-5-methyl-3-oxo-2,14-dioxa-bicyclo[11.3.1]heptadeca-4,8-dien-15-yl)thiazolidin-2-one]
- Percent inhibition at 10 uM (non-muscle actin): 67.2%
- Concentration giving complete actin disruption (NIH/3T3 cells): 15 µM

SMILES: O=C1CCCCCCCCC[C@@H]2C[C@H](C[C@](O)([C@@H]3CSC(=O)N3)O2)O1 [Compound 10b, (R)-4-((1R,13R,15R)-15-Hydroxy-3-oxo-2,14-dioxa-bicyclo[11.3.1]heptadecan-15-yl)thiazolidin-2-one]
- Percent inhibition at 10 uM (non-muscle actin): 21.8%

SMILES: O=C1CCCCC/C=C/CCC[C@@H]2C[C@H](C[C@](O)([C@@H]3CSC(=O)N3)O2)O1 [Compound 10c, (R)-4-((1R,14R,16R,E)-16-Hydroxy-3-oxo-2,15-dioxa-bicyclo[12.3.1]octadec-9-en-16-yl)thiazolidin-2-one]
- Percent inhibition at 10 uM (non-muscle actin): 21.7%

SMILES: C/C1=C/C(=O)O[C@@H]2C[C@@H](CCCCCCC1)O[C@@](O)([C@@H]1CSC(=O)N1)C2 [Compound 10, (R)-4-((1R,13R,15R,Z)-15-Hydroxy-5-methyl-3-oxo-2,14-dioxa-bicyclo[11.3.1]heptadec-4-en-15-yl)thiazolidin-2-one]
- Percent inhibition at 10 uM (non-muscle actin): 44.1%

SMILES: C=CCCC[C@@H]1C[C@@H](OC(=O)c2ccc(S(C)(=O)=O)cc2)C[C@](O)([C@@H]2CSC(=O)N2)O1 [Compound 4b, (2R,4R,6R)-2-Hydroxy-2-((R)-2-oxothiazolidin-4-yl)-6-(pent-4-enyl)-tetrahydro-2H-pyran-4-yl 4-(Methylsulfonyl)benzoate]
- Percent inhibition at 10 uM (non-muscle actin): 45.6%

SMILES: C/C1=C/C(=O)N[C@@H]2C[C@@H](CCC/C=C\CC1)O[C@@](O)([C@@H]1CSC(=O)N1)C2 [Compound 8c, (1R,4Z,8Z,13R,15R)-15-Hydroxy-5-methyl-15-((R)-2-oxothiazolidin-4-yl)-14-oxa-2-aza-bicyclo[11.3.1]heptadeca-4,8-dien-3-one]
- Percent inhibition at 10 uM (non-muscle actin): 44.9%

SMILES: C=CCCC[C@@H]1C[C@@H](OC(=O)/C=C(/C)CCC=C)C[C@](O)([C@@H]2CSC(=O)N2)O1 [Compound 1, (Z)-((2R,4R,6R)-2-Hydroxy-2-((R)-2-oxothiazolidin-4-yl)-6-(pent-4-enyl)-tetrahydro-2H-pyran-4-yl) 3-Methylhepta-2,6-dienoate]
- Percent inhibition at 10 uM (non-muscle actin): 52.3%

Reference: US8039465B2, “Cytoskeletal active compounds, composition and use” (priority 2005, dated 2011)
